The record followed here is patent publication US20260184712A1, “Heterocyclic Compounds as ENT Inhibitors and Compounds for Use in the Treatment of Cancers” (iTeos Belgium SA, priority 2022, published 2026).

SMILES strings stand for the structures. Some results are limits rather than exact numbers.

The assay addresses T1, human ENT1 (Homo sapiens, UniProt Q99808).
T1 construct: JAR cells expressing ENT1 were purchased from ATCC; host or cells: JAR cells
T1 sequence (Q99808 1-456): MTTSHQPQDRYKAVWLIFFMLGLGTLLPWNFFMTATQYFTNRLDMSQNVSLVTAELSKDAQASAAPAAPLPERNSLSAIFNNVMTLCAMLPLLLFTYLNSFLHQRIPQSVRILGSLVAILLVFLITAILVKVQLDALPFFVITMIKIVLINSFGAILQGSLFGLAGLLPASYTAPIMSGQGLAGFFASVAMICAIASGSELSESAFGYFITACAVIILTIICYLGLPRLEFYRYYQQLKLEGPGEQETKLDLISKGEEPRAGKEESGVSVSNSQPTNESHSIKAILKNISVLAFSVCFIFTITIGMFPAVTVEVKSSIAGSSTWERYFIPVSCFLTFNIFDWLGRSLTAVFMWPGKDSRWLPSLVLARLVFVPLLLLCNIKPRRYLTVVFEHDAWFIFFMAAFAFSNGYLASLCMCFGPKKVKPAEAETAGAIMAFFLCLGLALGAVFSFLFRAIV
Nature of the assay: ENT1 binding assay (competition with Sahenta-DY647 on JAR cells). As to conditions: competition with SAHENTA-DY647 binding; IC50 categorized; read-out: Binding Assay IC50. In outline: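 Whole-cell competition on JAR cells (native ENT1): 50,000 cells pre-incubated 30 min at 4 °C with compound in HBSS/10 mM Hepes/0.1% BSA, then 100 nM Sahenta-DY647 added for 30 min at 4 °C. After washing, fluorescence (Ex 630/Em 670 nm) read; IC50 from sigmoidal fit, averaged as pIC50.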
Regarding `C[C@H]1O[C@@H](n2cnc3c(SCc4cc(-c5ccco5)on4)ncnc32)[C@H](O)[C@@H]1O` [Compound 359], the IC50 is above 500 nM. As to `C[C@H]1O[C@@H](n2cnc3c(C(=O)N4CCc5ccc([N+](=O)[O-])cc5C4)ncnc32)[C@H](O)[C@@H]1O` [Compound 360], the IC50 is above 500 nM. In the case of `C[C@H]1O[C@@H](n2cnc3c(C(=O)NCc4ccc(C#N)cc4)ncnc32)[C@H](O)[C@@H]1O` [Compound 361], the IC50 was above 500 nM. Next, `C[C@H]1O[C@@H](n2cnc3c(OCc4ncc(F)cc4F)ncnc32)[C@H](O)[C@@H]1O` [Compound 362]: above 500 nM; `C[C@H]1O[C@@H](n2cnc3c(OCc4ccc5c(c4)OCCO5)ncnc32)[C@H](O)[C@@H]1O` [Compound 363]: above 500 nM.

With `C[C@H]1O[C@@H](n2cnc3c(OCc4ccc(-c5ccncc5)cc4)ncnc32)[C@H](O)[C@@H]1O` [Compound 364], the IC50 is above 500 nM. On to `CC(C)Oc1cccc(CSc2ncnc3c2ncn3[C@@H]2O[C@H](C)[C@@H](O)[C@H]2O)c1` [Compound 365], for which the IC50 was above 500 nM. In the case of `C[C@H]1O[C@@H](n2cnc3c(SCc4ccc(S(=O)(=O)N(C)C)cc4)ncnc32)[C@H](O)[C@@H]1O` [Compound 366], the IC50 was above 500 nM.

On to `Cc1nc(=O)c2cc(COc3ncnc4c3ncn4[C@@H]3O[C@H](C)[C@@H](O)[C@H]3O)ccc2[nH]1` [Compound 367], for which the IC50 is above 500 nM. As for `C[C@H]1O[C@@H](n2cnc3c(-c4cn(-c5ccc([N+](=O)[O-])cc5)nn4)ncnc32)[C@H](O)[C@@H]1O` [Compound 368], the IC50 was above 500 nM. The value for `C[C@H]1O[C@@H](n2cnc3c(C(=O)NCc4ccc(C#N)c(F)c4)ncnc32)[C@H](O)[C@@H]1O` [Compound 369] was above 500 nM; that for `C[C@H]1O[C@@H](n2cnc3c(NCc4ccc(C(=O)N(C)C)cc4)ncnc32)[C@H](O)[C@@H]1O` [Compound 370] was above 500 nM; that for `C[C@H]1O[C@@H](n2cnc3c(CO[C@H]4CC[C@H](C(F)(F)F)CC4)ncnc32)[C@H](O)[C@@H]1O` [Compound 371] was above 500 nM. Next, `CNc1ccccc1COc1ncnc2c1ncn2[C@@H]1O[C@H](C)[C@@H](O)[C@H]1O` [Compound 372]: above 500 nM; `C[C@H]1O[C@@H](n2cnc3c(OCc4cccc(C(N)=O)c4)ncnc32)[C@H](O)[C@@H]1O` [Compound 373]: above 500 nM; `C[C@H]1O[C@@H](n2cnc3c(NCc4ccccc4C(N)=O)ncnc32)[C@H](O)[C@@H]1O` [Compound 374]: above 500 nM. For `C[C@H]1O[C@@H](n2cnc3c(OCc4ccccc4S(C)(=O)=O)ncnc32)[C@H](O)[C@@H]1O` [Compound 375], the IC50 is above 500 nM.

Consider `C[C@H]1O[C@@H](n2cnc3c(NCc4ccc5ncccc5c4)ncnc32)[C@H](O)[C@@H]1O` [Compound 376], for which the IC50 was above 500 nM. Next, `C[C@H]1O[C@@H](n2cnc3c(OCc4ccc(N5CCCC5)cc4)ncnc32)[C@H](O)[C@@H]1O` [Compound 377]: above 500 nM; `C[C@H]1O[C@@H](n2cnc3c(NCc4cc(C(F)(F)F)ccc4F)ncnc32)[C@H](O)[C@@H]1O` [Compound 378]: above 500 nM. As for `C[C@H]1O[C@@H](n2cnc3c(NCc4cccc(C(=O)N(C)C)c4)ncnc32)[C@H](O)[C@@H]1O` [Compound 379], the IC50 is above 500 nM. The value for `C[C@H]1O[C@@H](n2cnc3c(NCc4cccc(-c5ncco5)c4)ncnc32)[C@H](O)[C@@H]1O` [Compound 380] was above 500 nM.

Consider `Cc1nccn1-c1ccc(COc2ncnc3c2ncn3[C@@H]2O[C@H](C)[C@@H](O)[C@H]2O)cc1` [Compound 381], for which the IC50 was above 500 nM. In the case of `COc1cc(COc2ncnc3c2ncn3[C@@H]2O[C@H](C)[C@@H](O)[C@H]2O)cc(OC)c1OC` [Compound 382], the IC50 was above 500 nM.

For the molecule `C[C@H]1O[C@@H](n2cnc3c(OCc4ccc(-c5ccn(C)n5)cc4)ncnc32)[C@H](O)[C@@H]1O` [Compound 383], the IC50 was above 500 nM. `C[C@H]1O[C@@H](n2cnc3c(NCc4ccc(-c5ccccn5)cc4)ncnc32)[C@H](O)[C@@H]1O` [Compound 384]: the concentration for half-maximal inhibition (IC50) is above 500 nM. The value for `C[C@H]1O[C@@H](n2cnc3c(NCc4ccc(N5CCOCC5)cc4)ncnc32)[C@H](O)[C@@H]1O` [Compound 385] was above 500 nM; that for `CC(C)NC(=O)c1ccc(CNc2ncnc3c2ncn3[C@@H]2O[C@H](C)[C@@H](O)[C@H]2O)cc1` [Compound 386] was above 500 nM. In the case of `C[C@H]1O[C@@H](n2cnc3c(NCc4ccc(N5CCCC5=O)cc4)ncnc32)[C@H](O)[C@@H]1O` [Compound 387], the IC50 is above 500 nM.

Regarding `C[C@H]1O[C@@H](n2cnc3c(NCc4ccc(OCCN(C)C)cc4)ncnc32)[C@H](O)[C@@H]1O` [Compound 388], the IC50 was above 500 nM. With `C[C@H]1O[C@@H](n2cnc3c(NCc4ccc(OC5CCOCC5)cc4)ncnc32)[C@H](O)[C@@H]1O` [Compound 389], the IC50 was above 500 nM. The value for `C[C@H]1O[C@@H](n2cnc3c(SCc4ccc(C(=O)N5CCCC5)cc4)ncnc32)[C@H](O)[C@@H]1O` [Compound 390] was above 500 nM; that for `C[C@H]1O[C@@H](n2cnc3c(SCc4ccc(S(=O)(=O)N5CCCC5)cc4)ncnc32)[C@H](O)[C@@H]1O` [Compound 391] was above 500 nM. The value for `C[C@H]1O[C@@H](n2cnc3c(SCc4nc5ccccc5o4)ncnc32)[C@H](O)[C@@H]1O` [Compound 392] was above 500 nM; that for `C[C@H]1O[C@@H](n2cnc3c(SCc4cccnn4)ncnc32)[C@H](O)[C@@H]1O` [Compound 393] was above 500 nM; that for `C[C@H]1O[C@@H](n2cnc3c(SCc4ncccn4)ncnc32)[C@H](O)[C@@H]1O` [Compound 394] was above 500 nM. In the case of `C[C@H]1O[C@@H](n2cnc3c(SCc4nc(-c5ccc(F)cc5)no4)ncnc32)[C@H](O)[C@@H]1O` [Compound 395], the IC50 was above 500 nM.

With `Cc1ccc2nc(CSc3ncnc4c3ncn4[C@@H]3O[C@H](C)[C@@H](O)[C@H]3O)cn2c1` [Compound 396], the concentration for half-maximal inhibition (IC50) is above 500 nM. Consider `Cc1noc(CSc2ncnc3c2ncn3[C@@H]2O[C@H](C)[C@@H](O)[C@H]2O)n1` [Compound 397], for which the IC50 was above 500 nM.

`Cc1nnc(CSc2ncnc3c2ncn3[C@@H]2O[C@H](C)[C@@H](O)[C@H]2O)o1` [Compound 398]: the IC50 is above 500 nM.

As to `C[C@H]1O[C@@H](n2cnc3c(COCc4ccccc4)ncnc32)[C@H](O)[C@@H]1O` [Compound 399], the IC50 is above 500 nM. With `C[C@H]1O[C@@H](n2cnc3c(OCCc4ccc(C(F)F)nc4)ncnc32)[C@H](O)[C@@H]1O` [Compound 400], the IC50 was above 500 nM.

Regarding `C[C@H]1O[C@@H](n2cnc3c(OCCc4ccc(=O)n(C)c4)ncnc32)[C@H](O)[C@@H]1O` [Compound 401], the IC50 is above 500 nM. Regarding `C[C@H]1O[C@@H](n2cnc3c(OCCc4ccc(C#N)cn4)ncnc32)[C@H](O)[C@@H]1O` [Compound 402], the IC50 is above 500 nM. The value for `C[C@H]1O[C@@H](n2cnc3c(OCCc4cnc(CF)nc4)ncnc32)[C@H](O)[C@@H]1O` [Compound 403] was above 500 nM. The value for `C[C@H]1O[C@@H](n2cnc3c(OCCc4cnc(C(F)F)nc4)ncnc32)[C@H](O)[C@@H]1O` [Compound 404] was above 500 nM.

In general, IC50 refers to the midpoint of a concentration-inhibition curve.
